Assay results: patent publication US20260274856A1, “COVALENT CEREBLON LIGANDS” (C4 THERAPEUTICS, INC., priority 2023, published 2026)
Read-outs that look alike come from different tables or passages of the source.

Legend:
[1] = molecular target: mutant BRAF V600E (Homo sapiens, UniProt P15056, V600E); assay: BRAF V600E HiBiT Degradation Assay in A375.10 cells
[2] = molecular target: cellular cereblon (CRBN) (Homo sapiens, UniProt Q96SW2); assay: NanoBRET Target Engagement Assay, competition with pomalidomide tracer in 293T.116 cells; conditions: for NanoBRET TE 293T.116 CRBN 2 hours IP nM / NanoBRET TE 293T.116 CRBN 6 hours IP nM / NanoBRET TE 293T.116 CRBN 24 hours IP nM / IC50: 293T.116 cells
[3] = 2 hours, A375.10 cells, inflection point of the dose-response curve
[4] = read-out: HIBIT-Degradation A375.10 BRAF 2 hours DC50 nM, 2 hours, A375.10 cells
[5] = read-out: HiBIT-Degradation A375.10 BRAF 2 hours Emax
[6] = NanoBRET TE 293T.116 CRBN 2 hours IC50 nM, 2 hours incubation
[7] = NanoBRET TE 293T.116 CRBN 6 hours IC50 nM, 6 hours incubation
[8] = NanoBRET TE 293T.116 CRBN 24 hours IC50 nM, 24 hours incubation
[9] = read-out: NanoBRET TE 293T.116 CRBN 2 hours Emax
[10] = read-out: NanoBRET TE 293T.116 CRBN 6 hours Emax
[11] = read-out: NanoBRET TE 293T.116 CRBN 24 hours Emax

| HiBIT-Degradation A375.10 BRAF 2 hours IP nM [1, 3] | DC50 [1, 4] [nM] | Emax [1, 5] [%] | Structure (SMILES) | NanoBRET TE 293T.116 CRBN 6 hours IP nM ([2]; 6 hours incubation) | NanoBRET TE 293T.116 CRBN 24 hours IP nM ([2]; 24 hours incubation) | IC50 [2, 7] [nM] | IC50 [2, 8] [nM] | Emax [2, 10] [%] | Emax [2, 11] [%] | other results |
| --- | --- | --- | --- | --- | --- | --- | --- | --- | --- | --- |
| ** (<10 μM and >1 μM is **) | > 10000 | < 60 | CCN(C)S(=O)(=O)Nc1ccc(F)c(Oc2ccc3ncn([C@@H]4COC5(CCN(C(=O)CN6CCC(c7ccc(C8CCC(=O)NC8=O)cc7OS(C)(=O)=O)CC6)CC5)C4)c(=O)c3c2)c1C#N (stereo partly drawn) [drawing 1207] |  |  |  |  |  |  |  |
|  |  |  | CCN(C)S(=O)(=O)Nc1ccc(F)c(Oc2ccc3ncn([C@@H]4COC5(CCN(C(=O)CN6CCC(c7ccc(NC8CCC(=O)NC8=O)cc7OS(C)(=O)=O)CC6)CC5)C4)c(=O)c3c2)c1C#N (stereo partly drawn) [drawing 1226] |  |  |  |  |  |  | HiBIT-Degradation A375.10 BRAF 24 hours IP nM ([1]; 24 hours, A375.10 cells, inflection point of the dose-response curve): ** (<10 μM and >1 μM is **); DC50 ([1]; read-out: HiBIT-Degradation A375.10 BRAF 24 hours DC50 nM, 24 hours, A375.10 cells): 1000 to 10000 nM; Emax ([1]; read-out: HiBIT-Degradation A375.10 BRAF 24 hours Emax): < 60% |
| *** (<= 1 μM is) | 1000 to 10000 | < 60 | CCN(C)S(=O)(=O)Nc1ccc(F)c(Oc2ccc3ncn([C@H]4COC5(CCN(C(=O)CN6CCC(c7ccc(OC8CCC(=O)NC8=O)cc7OS(C)(=O)=O)CC6)CC5)C4)c(=O)c3c2)c1C#N (stereo partly drawn) [drawing 1204] |  |  |  |  |  |  |  |
| ** (<10 μM and >1 μM is **) | 1000 to 10000 | < 60 | CCN(C)S(=O)(=O)Nc1ccc(F)c(Oc2ccc3ncn([C@H]4COC5(CCN(C(=O)CN6CCC(c7ccc(N8CCC(=O)NC8=O)cc7OS(C)(=O)=O)CC6)CC5)C4)c(=O)c3c2)c1C#N [drawing 1205] |  |  |  |  |  |  |  |
| *** (<= 1 μM is) | > 10000 | < 60 | CCN(C)S(=O)(=O)Nc1ccc(F)c(Oc2ccc3ncn([C@@H]4COC5(CCN(C(=O)CN6CCC(c7ccc(N8CCC(=O)NC8=O)cc7OS(C)(=O)=O)CC6)CC5)C4)c(=O)c3c2)c1C#N [drawing 1203] |  |  |  |  |  |  |  |
|  |  |  | O=C1CCC(CNc2cccc(OS(=O)(=O)F)c2)C(=O)N1 (stereo not drawn) [Compound A-40, 3-(((2,6-dioxopiperidin-3-yl)methyl)amino)phenyl sulfurofluoridate] | * (>=10 μM is *) | ** (<10 μM and >1 μM is **) | 1000 to 10000 | 1000 to 10000 | < 50 | < 50 | NanoBRET TE 293T.116 CRBN 2 hours IP nM ([2]; 2 hours incubation): * (>=10 μM is *); IC50 [2, 6]: > 10000 nM; Emax [2, 9]: 50 to 80% |
|  |  |  | O=C1CCN(c2ccc(OS(=O)(=O)F)cc2)C(=O)N1 [Compound A-15, 4-(2,4-dioxotetrahydropyrimidin-1(2H)-yl)phenyl sulfurofluoridate] | ** (<10 μM and >1 μM is **) | ** (<10 μM and >1 μM is **) | > 10000 | 1000 to 10000 | 50 to 80 | < 50 | NanoBRET TE 293T.116 CRBN 2 hours IP nM ([2]; 2 hours incubation): ** (<10 μM and >1 μM is **); IC50 [2, 6]: > 10000 nM; Emax [2, 9]: 50 to 80% |
|  |  |  | O=C1CCC(c2ccc(OS(=O)(=O)F)cc2)C(=O)N1 (stereo not drawn) [Compound A-25, 4-(2,6-dioxopiperidin-3-yl)phenyl sulfurofluoridate] | *** (<= 1 μM is ***) | *** (<= 1 μM is ***) | < 1000 | < 1000 | < 50 | < 50 |  |
|  |  |  | Cc1cc(OC2CCC(=O)NC2=O)cc(OS(=O)(=O)F)c1 (stereo not drawn) [Compound A-20, 3-((2,6-dioxopiperidin-3-yl)oxy)-5-methylphenyl sulfurofluoridate] | *** (<= 1 μM is ***) | *** (<= 1 μM is ***) | < 1000 | 1000 to 10000 | < 50 | < 50 |  |

| Structure (SMILES) | HiBIT-Degradation A375.10 BRAF 2 hours IP nM [1, 3] | DC50 [1, 4] [nM] | Emax [1, 5] [%] | NanoBRET TE 293T.116 CRBN 6 hours IP nM ([2]; 6 hours incubation) | NanoBRET TE 293T.116 CRBN 24 hours IP nM ([2]; 24 hours incubation) | IC50 [2, 7] [nM] | IC50 [2, 8] [nM] | Emax [2, 10] [%] | Emax [2, 11] [%] | other results |
| --- | --- | --- | --- | --- | --- | --- | --- | --- | --- | --- |
| CCN(C)S(=O)(=O)Nc1ccc(F)c(Oc2ccc3ncn([C@@H]4COC5(CCN(C(=O)CN6CCC(c7ccc(NC8CCC(=O)NC8=O)cc7S(=O)(=O)F)CC6)CC5)C4)c(=O)c3c2)c1C#N (stereo partly drawn) [drawing 1209] | * (>=10 μM is *) | > 10000 | 60 to 95 |  |  |  |  |  |  |  |
| CCN(C)S(=O)(=O)Nc1ccc(F)c(Oc2ccc3ncn([C@@H]4COC5(CCN(C(=O)CN6CCC(c7ccc(OC8CCC(=O)NC8=O)cc7S(=O)(=O)F)CC6)CC5)C4)c(=O)c3c2)c1C#N (stereo partly drawn) [drawing 1198] | *** (<= 1 μM is) | 1000 to 10000 | 60 to 95 |  |  |  |  |  |  |  |
